“Also recorded” adds a separate entry of the source.
Assays:
[1] = system: mutant LdtMt2 (Y318A, Y318F, H336N, H352A, H352N, C354A, C354S); type: binding, M. tuberculosis
LdtMt2 [2] = biological target: T1, LdtMt2 (Mycobacterium tuberculosis, UniProt I6Y9J2); assay: biochemical; set-up: species or system M. tuberculosis; settings: read-out: kinact/Kapp ratio
LdtMt1 = LdtMt1 (Mycobacterium tuberculosis, UniProt O53638); type: binding, M. tuberculosis
LdtMt2 [3] = biological target: T1, LdtMt2; type: binding, M. tuberculosis
[4] = system: LdtMt2 variants Y318F, H336N, H352N and C354S; type: binding, M. tuberculosis

T1 sequence (I6Y9J2 56-408 limits assumed): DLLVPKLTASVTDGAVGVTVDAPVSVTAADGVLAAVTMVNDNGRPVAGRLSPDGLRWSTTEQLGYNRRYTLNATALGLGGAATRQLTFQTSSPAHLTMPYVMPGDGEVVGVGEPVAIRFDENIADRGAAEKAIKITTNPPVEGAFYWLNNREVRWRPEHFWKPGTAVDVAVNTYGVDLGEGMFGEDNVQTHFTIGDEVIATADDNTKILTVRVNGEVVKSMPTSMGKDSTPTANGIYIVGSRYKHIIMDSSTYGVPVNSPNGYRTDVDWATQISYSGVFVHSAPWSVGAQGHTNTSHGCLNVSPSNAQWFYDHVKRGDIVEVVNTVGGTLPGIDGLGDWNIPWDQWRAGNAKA
Chain of LdtMt1 (O53638 32-251 limits assumed): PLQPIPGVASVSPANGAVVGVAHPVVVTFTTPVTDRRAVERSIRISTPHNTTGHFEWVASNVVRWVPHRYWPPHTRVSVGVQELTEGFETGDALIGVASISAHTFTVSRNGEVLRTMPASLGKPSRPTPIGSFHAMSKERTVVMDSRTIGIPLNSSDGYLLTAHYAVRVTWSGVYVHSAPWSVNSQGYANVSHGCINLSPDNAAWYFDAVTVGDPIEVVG

SMILES	adduct formation [1]	kinact/KI (LdtMt2 [2]) [M⁻¹ s⁻¹]	reaction and covalent adduct formation (LdtMt1)	reaction and covalent adduct formation (LdtMt2 [3])	binding affinity [4]
C[C@@H](O)[C@H]1C(=O)N2C(C(=O)[O-])=C(SC3Cn4cnc[n+]4C3)[C@H](C)[C@H]12 (stereo partly drawn) [biapenem]	no adducts could be detected				
C[C@@H](O)[C@H]1C(=O)N2C(C(=O)O)=C(SCC(=O)OC3CCCCC3)[C@H](C)[C@H]12 [T208]		9330	reacted and formed covalent adducts	reacted and formed covalent adducts	
CCCOC(=O)CSC1=C(C(=O)O)N2C(=O)[C@H]([C@@H](C)O)[C@H]2[C@H]1C [T206]			reacted and formed covalent adducts	reacted and formed covalent adducts	
C[C@@H](O)[C@H]1C(=O)N2C(C(=O)O)=C(SC3CN(C4=NCCS4)C3)[C@H](C)[C@H]12 [tebipenem]	same adducts were detected; also recorded: failed to produce any covalent adduct				either a complete loss of or no appreciable binding affinities
COC(=O)CSC1=C(C(=O)[O-])N2C(=O)[C@H]([C@@H](C)O)[C@H]2[C@H]1C.[Na+] [T205, sodium (4R,5S,6S)-6-((R)-1-hydroxyethyl)-3-((2-methoxy-2-oxoethyl)thio)-4-methyl-7-oxo-1-azabicyclo[3.2.0]hept-2-ene-2 carboxylate]			reacted and formed covalent adducts	reacted and formed covalent adducts	
CSC1=C(C(=O)O)N2C(=O)[C@H]([C@@H](C)O)[C@H]2[C@H]1C [T210]			reacted and formed covalent adducts	reacted and formed covalent adducts	poor binding affinities
C[C@@H](O)[C@H]1C(=O)N2C(C(=O)O)=C([C@H]3CCCO3)S[C@H]12 [faropenem]	same adducts were detected; also recorded: failed to produce any covalent adduct				either a complete loss of or no appreciable binding affinities

From US10695322B2 (priority 2016, dated 2020)
